Data reported in patent US20250295798A1, “LIGAND-DRUG CONJUGATE OF EXATECAN ANALOGUE, AND MEDICAL USE THEREOF” (BeiGene Switzerland GmbH, priority 2022, published 2025).
Counter-ions that a name gives are not always drawn.

How the values were obtained:
[1] = system: A375; assay: Compounds cellular killing in A375; assay type: cell-based, human; conditions: A375, 6 days, Cell Titer-Glo
Protocol: (§1) Seeding cells A375 (1E3/well) or Calu-6 (2E3/well) into 96-well plate (Greiner: 655090), 100 ul/well. Incubation at 37° C., 5% CO2, overnight.
(§2) Adding the fresh growth-medium containing the varying concentrations of compounds, 50 ul/well.
(§3) Incubation at 37° C., 5% CO2, 6 days.
(§4) The cell viability detected by Cell Titer-Glo (Promega, G7573). Add 70 µL/well of CellTiter-Glo® Reagent in each well.
(§5) Allow the plates to incubate at room temperature for 10 minutes to stabilize luminescent signal.
(§6) Analyze with Microplate Reader.
(§7) Seeding cells A375 ([…] or Calu-6 (2E3/well) into 96-well plate (Greiner: 655090), 100 ul/well. Incubation at 37° C., […], overnight.

[2] = system: Calu-6; assay: Compounds cellular killing in Calu-6; assay type: cell-based, human; conditions: Calu-6, 6 days, Cell Titer-Glo
Protocol: as §1, §2, §3, §4, §5, §6, §7

| Compound | EC50 ([1]; Homo sapiens, A-375, […]) [nM] | Emax ([1]; Homo sapiens, A-375, […]) [%] | EC50 ([2]; Homo sapiens, Calu-6, […]) [nM] | Emax ([2]; Homo sapiens, Calu-6, […]) [%] | EC50 ([1]; Homo sapiens, A-375) [nM] | Emax ([1]; Homo sapiens, A-375) [%] | EC50 ([2]; Homo sapiens) [nM] | EC50 [1] [nM] | Emax (%) [1] [%] | Emax (%) [2] [%] | EC50 [2] [nM] |
| --- | --- | --- | --- | --- | --- | --- | --- | --- | --- | --- | --- |
| CC[C@@]1(O)C(=O)OCc2c1cc1n(c2=O)Cc2c-1nc1cc(Cl)cc3c1c2[C@H](NC(=O)CO)CC3 [Example 2-13, N-((1R,9S)-5-chloro-9-ethyl-9-hydroxy-10,13-dioxo-2,3,9,10,13,15-hexahydro-1H,12H-benzo[de]pyrano[3′,4′:6,7]indolizino[1,2-b]quinolin-1-yl)-2-hydroxyacetamide] | 7.9 | 99.6 | 5.8 | 98.4 | – | – | – | – | – | – | – |
| CCc1c2c(nc3ccc(O)cc13)-c1cc3c(c(=O)n1C2)COC(=O)[C@]3(O)CC [Example 1-C, reference compound] | – | – | – | – | 4.3 | 99.5 | 2.6 | – | – | – | – |
| CC[C@@]1(O)C(=O)OCc2c1cc1n(c2=O)Cc2c-1nc1cc(F)c(Cl)c3c1c2[C@@H](N)CC3 [Example 1-26, ((1S,9S)-1-amino-4-chloro-9-ethyl-5-fluoro-9-hydroxy-1,2,3,9,12,15-hexahydro-10H,13H-benzo[de]pyrano[3′,4′:6,7]indolizino[1,2-b]quinoline-10,13-dione 2,2,2-trifluoroacetate salt] | 1 | 98.1 | 0.3 | 98.1 | – | – | – | – | – | – | – |
| CC[C@@]1(O)C(=O)OCc2c1cc1n(c2=O)Cc2c-1nc1cc(F)c(C)c3c1c2[C@@H](NC(=O)[C@@H]1C[C@H](O)CN1C(C)=O)CC3 [Example 2-38, (2S,4S)-1-acetyl-N-((1S,9S)-9-ethyl-5-fluoro-9-hydroxy-4-methyl-10,13-dioxo-2,3,9,10,13,15-hexahydro-1H,12H-benzo[de]pyrano[3′,4′:6,7]indolizino[1,2-b]quinolin-1-yl)-4-hydroxypyrrolidine-2-carboxamide] | 30.9 | 98.7 | 12.9 | 96.4 | – | – | – | – | – | – | – |
| CC[C@@]1(O)C(=O)OCc2c1cc1n(c2=O)Cc2c-1nc1cc(F)c(Cl)c3c1c2[C@@H](NC(=O)C(C)(C)CO)CC3 [Example 2-34, N-((1S,9S)-4-chloro-9-ethyl-5-fluoro-9-hydroxy-10,13-dioxo-2,3,9,10,13,15-hexahydro-1H,12H-benzo[de]pyrano[3′,4′:6,7]indolizino[1,2-b]quinolin-1-yl)-3-hydroxy-2,2-dimethylpropanamide] | 0.8 | 98.9 | 0.5 | 99.4 | – | – | – | – | – | – | – |
| CC[C@@]1(O)C(=O)OCc2c1cc1n(c2=O)Cc2c-1nc1cc3c(c4c1c2[C@@H](NC(=O)CO)CC4)OC(F)(F)O3 [Example 2-27, N-((1S,10S)-10-ethyl-5,5-difluoro-10-hydroxy-11,14-dioxo-2,3,10,11,14,16-hexahydro-1H,13H-benzo[de][1,3]dioxolo[4,5-g]pyrano[3′,4′:6,7]indolizino[1,2-b]quinolin-1-yl)-2-hydroxyacetamide] | 10.7 | 99.5 | 3.9 | 99.5 | – | – | – | – | – | – | – |
| CC[C@@]1(O)C(=O)OCc2c1cc1n(c2=O)Cc2c-1nc1cc(F)c(C)c3c1c2[C@@H](NC(=S)NCCO)CC3 [Example 2-25, 1-((1S,9S)-9-ethyl-5-fluoro-9-hydroxy-4-methyl-10,13-dioxo-2,3,9,10,13,15-hexahydro-1H,12H-benzo[de]pyrano[3′,4′:6,7]indolizino[1,2-b]quinolin-1-yl)-3-(2-hydroxyethyl)thiourea] | 0.9 | 99.9 | 0.1 | 98.2 | – | – | – | – | – | – | – |
| CC[C@@]1(O)C(=O)OCc2c1cc1n(c2=O)Cc2c-1nc1cc(F)c(C)c3c1c2[C@@H](NC(=O)C[C@H](O)CC#N)CC3 [Example 2-20, (R)-4-cyano-N-((1S,9S)-9-ethyl-5-fluoro-9-hydroxy-4-methyl-10,13-dioxo-2,3,9,10,13,15-hexahydro-1H,12H-benzo[de]pyrano[3′,4′:6,7]indolizino[1,2-b]quinolin-1-yl)-3-hydroxybutanamide] | 18.5 | 98 | 5.6 | 98.1 | – | – | – | – | – | – | – |
| CC[C@@]1(O)C(=O)OCc2c1cc1n(c2=O)Cc2c-1nc1cc(F)c(C)c3c1c2C(CNCCCO)CC3 (stereo partly drawn) [Example 2-55, (9S)-9-ethyl-5-fluoro-9-hydroxy-1-(((3-hydroxypropyl)amino)methyl)-4-methyl-1,2,3,9,12,15-hexahydro-10H,13H-benzo[de]pyrano[3′,4′:6,7]indolizino[1,2-b]quinoline-10,13-dione] | 7.3 | 99.8 | 2.8 | 99.3 | – | – | – | – | – | – | – |
| CC[C@@]1(O)C(=O)OCc2c1cc1n(c2=O)Cc2c-1nc1ccc(F)c3c1c2[C@@H](N)CC3 [Example 1-12, (1S,9S)-1-amino-9-ethyl-4-fluoro-9-hydroxy-1,2,3,9,12,15-hexahydro-10H,13H-benzo[de]pyrano[3′,4′:6,7]indolizino[1,2-b]quinoline-10,13-dione] | 5.5 | 99.8 | 2.1 | 99.5 | – | – | – | – | – | – | – |
| CC[C@@]1(O)C(=O)OCc2c1cc1n(c2=O)Cc2c-1nc1cc(F)c(C)c3c1c2[C@@H](N1CCCC1CO)CC3 (single isomer, unassigned) [Example 2-50] | – | – | – | – | – | – | – | 0.3 | 99.5 | 99.2 | – |
| CC[C@@]1(O)C(=O)OCc2c1cc1n(c2=O)Cc2c-1nc1cc(F)c(C)c3c1c2[C@@H](NC(=O)C1CCCC1O)CC3 (single isomer, unassigned) [Example 2-10] | – | – | – | – | – | – | – | 0.8 | 99.9 | 98.9 | 0.2 |
| CC[C@@]1(O)C(=O)OCc2c1cc1n(c2=O)Cc2c-1nc1cc(F)c(C)c3c1c2[C@@H](NC(=O)C(F)(F)CO)CC3 [Example 2-3, N-((1S,9S)-9-ethyl-5-fluoro-9-hydroxy-4-methyl-10,13-dioxo-2,3,9,10,13,15-hexahydro-1H,12H-benzo[de]pyrano[3′,4′:6,7]indolizino[1,2-b]quinolin-1-yl)-2,2-difluoro-3-hydroxypropanamide] | 2.1 | 100 | 0.8 | 98.5 | – | – | – | – | – | – | – |
| CC[C@@]1(O)C(=O)OCc2c1cc1n(c2=O)Cc2c-1nc1cc(F)c(C)c3c1c2[C@@H](NC(=O)[C@@H]1C[C@@H](O)CN1C(C)=O)CC3 [Example 2-17, (2S,4R)-1-acetyl-N-((1S,9S)-9-ethyl-5-fluoro-9-hydroxy-4-methyl-10,13-dioxo-2,3,9,10,13,15-hexahydro-1H,12H-benzo[de]pyrano[3′,4′:6,7]indolizino[1,2-b]quinolin-1-yl)-4-hydroxypyrrolidine-2-carboxamide] | 123 | 94.9 | 44.9 | 94.6 | – | – | – | – | – | – | – |
| CC[C@@]1(O)C(=O)OCc2c1cc1n(c2=O)Cc2c-1nc1cc(F)c(C)c3c1c2[C@@H](NC(=O)C(C)(F)CO)CC3 (stereo partly drawn) [Example 2-41, N-((1S,9S)-9-ethyl-5-fluoro-9-hydroxy-4-methyl-10,13-dioxo-2,3,9,10,13,15-hexahydro-1H,12H-benzo[de]pyrano[3′,4′:6,7]indolizino[1,2-b]quinolin-1-yl)-2-fluoro-3-hydroxy-2-methylpropanamide] | 1.5 | 99.9 | 0.6 | 98.2 | – | – | – | – | – | – | – |
| CC[C@@]1(O)C(=O)OCc2c1cc1n(c2=O)Cc2c-1nc1cc(F)c(C)c3c1c2[C@@H](NC(=O)C(O)(C(F)(F)F)C(F)(F)F)CC3 [Example 2-21, N-((1S,9S)-9-ethyl-5-fluoro-9-hydroxy-4-methyl-10,13-dioxo-2,3,9,10,13,15-hexahydro-1H,12H-benzo[de]pyrano[3′,4′:6,7]indolizino[1,2-b]quinolin-1-yl)-3,3,3-trifluoro-2-hydroxy-2-(trifluoromethyl)propenamide] | 4.5 | 98.3 | 0.4 | 96.7 | – | – | – | – | – | – | – |
| CC[C@@]1(O)C(=O)OCc2c1cc1n(c2=O)Cc2c-1nc1cc(F)c(OC)c3c1c2[C@@H](N)CC3 [Example 1-1, (1S,9S)-1-amino-9-ethyl-5-fluoro-9-hydroxy-4-methoxy-1,2,3,9,12,15-hexahydro-10H,13H-benzo[de]pyrano[3′,4′:6,7]indolizino[1,2-b]quinoline-10,13-dione methanesulfonate] | 2 | 100 | 0.9 | 99.6 | – | – | – | – | – | – | – |
| CC[C@@]1(O)C(=O)OCc2c1cc1n(c2=O)Cc2c-1nc1cc3c(c4c1c2[C@@H](NC(=O)C(C)(C)CO)CC4)OCO3 [Example 2-35, N-((1S,10S)-10-ethyl-10-hydroxy-11,14-dioxo-2,3,10,11,14,16-hexahydro-1H,13H-benzo[de][1,3]dioxolo[4,5-g]pyrano[3′,4′:6,7]indolizino[1,2-b]quinolin-1-yl)-3-hydroxy-2,2-dimethylpropanamide] | 1.6 | 100 | 0.2 | 98.6 | – | – | – | – | – | – | – |
| CC[C@@]1(O)C(=O)OCc2c1cc1n(c2=O)Cc2c-1nc1cc(F)c(C)c3c1c2[C@@H](NC(=O)C[C@@H](O)C[N+](C)(C)C)CC3 [Example 2-15, (R)-4-(((1S,9S)-9-ethyl-5-fluoro-9-hydroxy-4-methyl-10,13-dioxo-2,3,9,10,13,15-hexahydro-1H,12H-benzo[de]pyrano[3′,4′:6,7]indolizino[1,2-b]quinolin-1-yl)amino)-2-hydroxy-N,N,N-trimethyl-4-oxobutan-1-aminium] | 442 | 73.5 | 179 | 90.1 | – | – | – | – | – | – | – |
